Peptide text beside a SMILES is read from it.

Series [1] has as its target T1, α-Glucosidase from Saccharomyces cerevisiae (Saccharomyces cerevisiae, UniProt P53341).
T1 construct: purchased Yuanye Bio-Technology Co., Ltd. (Shanghai, China)
Kind of series: α-Glucosidase inhibitory activity (pNPG). In kind it is biochemical. The settings on record: PBS pH 6.8, 37 °C, 405 nm; for α-glucosidase inhibitory rate: 10 mM peptide, pNPG, n = 3; for IC50: 15 min preincubation, pNPG 15 min, mean ± SD (n = 3), read-out: IC50 value, α-glucosidase inhibition. From the text:
α-Glucosidase from Saccharomyces cerevisiae (activity ≥ 30 U/mg) and porcine bile salt (purity ≥ 60.0%) were obtained from Yuanye Bio-Technology Co., Ltd. (Shanghai, China). Pepsin (activity ≥ 800 U/mg), pancreatin (activity ≥ 4000 U/g), and amyloglucosidase (activity ≥ 10,000 U/g) were obtained from Shanghai Ryon Biological Technology Co., Ltd. The p-nitrobenzene-α-D-glucopyranoside (pNPG, purity ≥ 99.0%) was purchased from Sigma-Aldrich (Shanghai, China). Peptides LADW and EEAEGT (purity ≥ 98.0%) were synthesized by ALL PEPTIDE Biology Co., Ltd. (Hangzhou, China). All other chemicals and solvents were of analytical grade.
α-Glucosidase inhibitory activity was determined following the method of Zheng et al., with slight modifications. Briefly, 80.0 μL of phosphate-buffered saline (PBS, pH = 6.8), 20.0 μL of α-glucosidase (7 U/mL, dissolved in PBS), and 20.0 μL of the peptide (dissolved in PBS) were mixed and incubated at 37 °C for 15 min. Subsequently, 20.0 μL of pNPG (2.5 mM, dissolved in PBS) was added to the mixture, followed by another incubation at 37 °C for 15 min. To terminate the reaction, 60 μL of Na2CO3 (0.2 M, dissolved in PBS) was added, and the absorbance was measured at 405 nm using a SpectraMax M5 microplate reader (Molecular Devices, Sunnyvale, CA, USA). The α-glucosidase inhibitory rate (%) was determined using the following formula:α-glucosidase inhibitory rate (%) = [1 − (Asample − Asample blank)/(Acontrol − Acontrol blank)] × 100 where Asample and Asample blank were the absorbance values with and without α-glucosidase added, respectively; Acontrol and Acontrol blank were the absorbance values with and without peptide solution added, respectively, after replacing α-glucosidase solution with PBS solution. The above solution without addition was replaced by PBS solution.

The conditions of series [2]: sensory evaluation in previous work; ref [7]; cited from earlier work. An excerpt:
The intestinal stability, non-toxicity, and absorbability of peptides were considered important indicators for identifying bioactive peptides. In our previous work, these peptides were also confirmed to be non-toxic by sensory evaluation, and the peptides LADW and […] were obtained by hydrolysis with three common enzymes (pepsin, trypsin, and chymotrypsin) in the GI tract. […] Therefore, the potential α-GIPs identified in this study were presumed to withstand hy ...

Details of series [3]: method as in PMID 8001624. The following applies: clinical practice; ref [3]; cited from earlier work.
For series [4] the following is noted: sensory evaluation in previous work; ref [7]; cited from earlier work. An excerpt: Table 1 Prediction results of physicochemical properties and potential activity of peptides. | column: Umami Threshold (mg/mL)
The source holds these as a separate data set.

T1 sequence (P53341 whole entry): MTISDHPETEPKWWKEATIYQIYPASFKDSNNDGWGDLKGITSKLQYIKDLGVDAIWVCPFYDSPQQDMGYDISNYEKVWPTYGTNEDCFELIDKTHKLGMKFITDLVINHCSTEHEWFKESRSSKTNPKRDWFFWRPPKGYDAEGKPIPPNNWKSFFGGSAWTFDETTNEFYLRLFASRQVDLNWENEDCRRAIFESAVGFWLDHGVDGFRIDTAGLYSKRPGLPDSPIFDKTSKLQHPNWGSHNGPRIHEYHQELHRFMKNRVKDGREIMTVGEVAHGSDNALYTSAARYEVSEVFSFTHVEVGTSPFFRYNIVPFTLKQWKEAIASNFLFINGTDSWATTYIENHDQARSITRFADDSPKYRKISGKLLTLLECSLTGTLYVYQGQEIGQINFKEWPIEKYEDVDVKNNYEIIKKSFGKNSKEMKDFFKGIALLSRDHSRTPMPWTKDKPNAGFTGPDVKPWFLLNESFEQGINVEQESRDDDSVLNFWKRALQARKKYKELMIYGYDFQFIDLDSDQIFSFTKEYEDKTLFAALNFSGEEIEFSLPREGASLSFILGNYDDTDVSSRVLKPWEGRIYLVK

For the molecule `C[C@H](NC(=O)[C@H](CCC(=O)O)NC(=O)[C@@H](N)CCC(=O)O)C(=O)N[C@@H](CCC(=O)O)C(=O)NCC(=O)N[C@H](C(=O)O)[C@@H](C)O` [EEAEGT] (H-EEAEGT-OH), in series [1], the α-glucosidase inhibitory rate was determined as 96.44% and the concentration for half-maximal inhibition (IC50) (in general, the concentration that gives 50% inhibition) was determined as 6.46 ± 0.22 mM. The Toxicity result in series [2] is “non-toxic”.
For `CC(C)C[C@H](N)C(=O)N[C@@H](C)C(=O)N[C@@H](CC(=O)O)C(=O)N[C@@H](Cc1c[nH]c2ccccc12)C(=O)O` [LADW] (H-LADW-OH), in series [1], the α-glucosidase inhibitory rate was found to be 98.15% and the IC50 stood at 4.4 ± 0.04 mM. Further, in series [2], the Toxicity result is “non-toxic”.
Turning to `C[C@H]1O[C@H](O[C@H]2[C@H](O)[C@@H](O)[C@@H](O[C@H]3[C@H](O)[C@@H](O)C(O)O[C@@H]3CO)O[C@@H]2CO)[C@H](O)[C@@H](O)[C@@H]1N[C@H]1C=C(CO)[C@@H](O)[C@H](O)[C@H]1O` (stereo partly drawn) [acarbose], the Adverse effects result in series [3] was “flatulence, diarrhea, and abdominal pain”.
As to “MEIDD [novel umami peptide identified in the hydrolysate of tuna skeletal myosin]”, the “Umami Threshold” value in series [4] was 0.250 mg/mL.
As for “VAEQE [novel umami peptide identified in the hydrolysate of tuna skeletal myosin]”, the “Umami Threshold” value in series [4] was 0.125 mg/mL.

Values taken from paper PMC10815170, “Exploring the Blood Glucose-Lowering Potential of the Umami Peptides LADW and EEAEGT Derived from Tuna Skeletal Myosin: Perspectives from α-Glucosidase Inhibition and Starch Interaction” (Foods, 2024).
